# Measurements as given in patent US20250270200A1, “CTPS1 INHIBITORS AND USES THEREOF” (Nimbus Clotho, Inc., priority 2022, published 2025).
# Structures can show the parent of a compound that is named as a salt.
# Molecular target: T1, human CTPS1 (Homo sapiens, UniProt P17812)
# T1 sequence (P17812 1-591): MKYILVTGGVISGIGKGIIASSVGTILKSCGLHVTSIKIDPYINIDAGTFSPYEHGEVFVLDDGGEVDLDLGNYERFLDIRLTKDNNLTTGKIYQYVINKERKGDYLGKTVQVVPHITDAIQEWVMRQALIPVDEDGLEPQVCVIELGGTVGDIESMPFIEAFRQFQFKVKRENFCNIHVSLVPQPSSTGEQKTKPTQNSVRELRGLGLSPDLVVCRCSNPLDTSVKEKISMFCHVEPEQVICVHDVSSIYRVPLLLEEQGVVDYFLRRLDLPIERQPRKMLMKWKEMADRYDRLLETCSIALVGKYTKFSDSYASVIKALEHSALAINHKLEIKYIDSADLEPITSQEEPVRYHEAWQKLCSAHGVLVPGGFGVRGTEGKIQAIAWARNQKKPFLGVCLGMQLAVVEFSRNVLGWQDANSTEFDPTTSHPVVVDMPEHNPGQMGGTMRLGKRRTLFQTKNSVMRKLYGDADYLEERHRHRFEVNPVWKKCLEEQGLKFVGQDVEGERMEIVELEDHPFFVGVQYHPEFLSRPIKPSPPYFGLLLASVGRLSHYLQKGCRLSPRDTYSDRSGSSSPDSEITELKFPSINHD
# Experiment: ADP-Glo assay, human CTPS1 enzyme inhibition
# Type: biochemical
# Details: wild-type human CTPS1, 25 nM enzyme; ADP-Glo; read-out: ADP-Glo_WT_hCTPS1—25 nM_IC50 (IC50)
# Outline: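 ADP-Glo luminescence quantified ADP produced by 25 nM purified human CTPS1 (full length, FLAG-His tagged) at 25° C within the linear phase. Final substrates: ATP 120 μM, UTP 160 μM, GTP 60 μM, L-glutamine 100 μM; 1% DMSO; pH 7.4 HEPES buffer with Mg2+, KCl, DTT. Compound pre-incubated with enzyme 10 min, then with ATP/UTP 10 min.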
row,Compound,IC50 [nM]
1,"CCOc1cncc(-c2cnc(C(=O)N[C@H](CN3C[C@H]4C[C@@H]3CO4)c3cccc(NS(=O)(=O)C(F)F)c3)s2)n1 [I-205, N-((S)-2-((1R,4R)-2-oxa-5-azabicyclo[2.2.1]heptan-5-yl)-1-(3-((difluoromethyl)sulfonamido)phenyl)ethyl)-5-(6-ethoxypyrazin-2-yl)thiazole-2-carboxamide, formic acid salt]",25 to 50
2,"CCOc1cncc(-c2cnc(C(=O)N[C@@H](CN3CC[C@@](C)(O)C3)c3cccc(NS(=O)(=O)C(F)F)c3)s2)n1 [I-206, N-((R)-1-(3-((difluoromethyl)sulfonamido)phenyl)-2-((R)-3-hydroxy-3-methylpyrrolidin-1-yl)ethyl)-5-(6-ethoxypyrazin-2-yl)thiazole-2-carboxamide]",5 to 25
3,"CCOc1cncc(-c2cnc(C(=O)N[C@H](CN3CC[C@@](C)(O)C3)c3cccc(NS(=O)(=O)C(F)F)c3)s2)n1 [I-207, N-((S)-1-(3-((difluoromethyl)sulfonamido)phenyl)-2-((R)-3-hydroxy-3-methylpyrrolidin-1-yl)ethyl)-5-(6-ethoxypyrazin-2-yl)thiazole-2-carboxamide]",25 to 50
4,"CCOc1cncc(-c2cnc(C(=O)N[C@H](CN3CC[C@](C)(O)C3)c3cccc(NS(=O)(=O)C(F)F)c3)s2)n1 [I-208, N-((S)-1-(3-((difluoromethyl)sulfonamido)phenyl)-2-((S)-3-hydroxy-3-methylpyrrolidin-1-yl)ethyl)-5-(6-ethoxypyrazin-2-yl)thiazole-2-carboxamide, formic acid salt]",5 to 25
5,"CCOc1cncc(-c2cnc(C(=O)N[C@@H](CN3CC[C@](C)(O)C3)c3cccc(NS(=O)(=O)C(F)F)c3)s2)n1 [I-209, N-((R)-1-(3-((difluoromethyl)sulfonamido)phenyl)-2-((S)-3-hydroxy-3-methylpyrrolidin-1-yl)ethyl)-5-(6-ethoxypyrazin-2-yl)thiazole-2-carboxamide, formic acid salt]",5 to 25
6,"CCOc1cncc(-c2cnc(C(=O)N[C@@H](CN3C[C@H]4CC[C@@H]3C4)c3cccc(NS(=O)(=O)C(F)F)c3)s2)n1 [I-210, N-((R)-2-((1R,4S)-2-azabicyclo[2.2.1]heptan-2-yl)-1-(3-((difluoromethyl)sulfonamido)phenyl)ethyl)-5-(6-ethoxypyrazin-2-yl)thiazole-2-carboxamide]",5 to 25
7,"CCOc1cncc(-c2cnc(C(=O)N[C@H](CN3C[C@H]4CC[C@@H]3C4)c3cccc(NS(=O)(=O)C(F)F)c3)s2)n1 [I-211, N-((S)-2-((1R,4S)-2-azabicyclo[2.2.1]heptan-2-yl)-1-(3-((difluoromethyl)sulfonamido)phenyl)ethyl)-5-(6-ethoxypyrazin-2-yl)thiazole-2-carboxamide]",50 to 100
8,"CCOc1cncc(-c2cnc(C(=O)N[C@@H](CN(C)C)c3cccc(NS(=O)(=O)C(F)F)c3)s2)n1 [I-212, (R)-N-(1-(3-((difluoromethyl)sulfonamido)phenyl)-2-(dimethylamino)ethyl)-5-(6-ethoxypyrazin-2-yl)thiazole-2-carboxamide]",25 to 50
9,"CCOc1cncc(-c2cnc(C(=O)N[C@H](CN(C)C)c3cccc(NS(=O)(=O)C(F)F)c3)s2)n1 [I-213, (S)-N-(1-(3-((difluoromethyl)sulfonamido)phenyl)-2-(dimethylamino)ethyl)-5-(6-ethoxypyrazin-2-yl)thiazole-2-carboxamide]",5 to 25
10,"CCOc1cncc(-c2cnc(C(=O)N[C@@H](Cn3ccnn3)c3cccc(NS(=O)(=O)C(F)F)c3)s2)n1 [I-214, (R)-N-(1-(3-((difluoromethyl)sulfonamido)phenyl)-2-(1H-1,2,3-triazol-1-yl)ethyl)-5-(6-ethoxypyrazin-2-yl)thiazole-2-carboxamide]",5 to 25
11,"CCOc1cncc(-c2cnc(C(=O)N[C@H](Cn3ccnn3)c3cccc(NS(=O)(=O)C(F)F)c3)s2)n1 [I-215, (S)-N-(1-(3-((difluoromethyl)sulfonamido)phenyl)-2-(1H-1,2,3-triazol-1-yl)ethyl)-5-(6-ethoxypyrazin-2-yl)thiazole-2-carboxamide]",5 to 25
12,"CCOc1cncc(-c2cnc(C(=O)N[C@H](Cn3nccn3)c3cccc(NS(=O)(=O)C(F)F)c3)s2)n1 [I-216, (S)-N-(1-(3-((difluoromethyl)sulfonamido)phenyl)-2-(2H-1,2,3-triazol-2-yl)ethyl)-5-(6-ethoxypyrazin-2-yl)thiazole-2-carboxamide]",≤ 5
13,"CCOc1cncc(-c2cnc(C(=O)N[C@@H](Cn3nccn3)c3cccc(NS(=O)(=O)C(F)F)c3)s2)n1 [I-217, (R)-N-(1-(3-((difluoromethyl)sulfonamido)phenyl)-2-(2H-1,2,3-triazol-2-yl)ethyl)-5-(6-ethoxypyrazin-2-yl)thiazole-2-carboxamide]",5 to 25
14,"CCOc1cncc(-c2cnc(C(=O)N[C@H](CN3CCCCC3)c3cccc(NS(=O)(=O)C(F)F)c3)s2)n1 [I-218, (S)-N-(1-(3-((difluoromethyl)sulfonamido)phenyl)-2-(piperidin-1-yl)ethyl)-5-(6-ethoxypyrazin-2-yl)thiazole-2-carboxamide]",25 to 50
15,"CCOc1cncc(-c2cnc(C(=O)N[C@@H](CN3CCCCC3)c3cccc(NS(=O)(=O)C(F)F)c3)s2)n1 [I-219, (R)-N-(1-(3-((difluoromethyl)sulfonamido)phenyl)-2-(piperidin-1-yl)ethyl)-5-(6-ethoxypyrazin-2-yl)thiazole-2-carboxamide]",5 to 25
16,"O=C(N[C@H](CN1CCCC1)c1cccc(NS(=O)(=O)C(F)F)c1)c1ncc(-c2cnn3ccc(Cl)cc23)s1 [I-220, (S)-5-(5-chloropyrazolo[1,5-a]pyridin-3-yl)-N-(1-(3-((difluoromethyl)sulfonamido)phenyl)-2-(pyrrolidin-1-yl)ethyl)thiazole-2-carboxamide]",25 to 50
17,"O=C(N[C@@H](CN1CCCC1)c1cccc(NS(=O)(=O)C(F)F)c1)c1ncc(-c2cnn3ccc(Cl)cc23)s1 [I-221, (R)-5-(5-chloropyrazolo[1,5-a]pyridin-3-yl)-N-(1-(3-((difluoromethyl)sulfonamido)phenyl)-2-(pyrrolidin-1-yl)ethyl)thiazole-2-carboxamide]",25 to 50
18,"CCOc1cncc(-c2cnc(C(=O)N[C@@H](c3cccc(NS(=O)(=O)C(F)F)c3)[C@H](C)N3CCOCC3)s2)n1 [I-222, N-((1S,2S)-1-(3-((difluoromethyl)sulfonamido)phenyl)-2-morpholinopropyl)-5-(6-ethoxypyrazin-2-yl)thiazole-2-carboxamide]",5 to 25
19,"CCOc1cncc(-c2cnc(C(=O)N[C@H](c3cccc(NS(=O)(=O)C(F)F)c3)[C@@H](C)N3CCOCC3)s2)n1 [I-224, N-((1R,2R)-1-(3-((difluoromethyl)sulfonamido)phenyl)-2-morpholinopropyl)-5-(6-ethoxypyrazin-2-yl)thiazole-2-carboxamide]",5 to 25
20,"CCOc1cncc(-c2cnc(C(=O)N[C@@H](c3cc(NS(=O)(=O)C4CC4)ccn3)[C@@H](C)CO)s2)n1 [I-226, N-((1R,2R)-1-(4-(cyclopropanesulfonamido)pyridin-2-yl)-3-hydroxy-2-methylpropyl)-5-(6-ethoxypyrazin-2-yl)thiazole-2-carboxamide]",5 to 25
21,"CCOc1cncc(-c2cnc(C(=O)N[C@@H](c3cc(NS(=O)(=O)C4CC4)ccn3)[C@H](C)CO)s2)n1 [I-227, N-((1R,2S)-1-(4-(cyclopropanesulfonamido)pyridin-2-yl)-3-hydroxy-2-methylpropyl)-5-(6-ethoxypyrazin-2-yl)thiazole-2-carboxamide]",≤ 5
22,"CCOc1cncc(-c2cnc(C(=O)N[C@H](c3cc(NS(=O)(=O)C4CC4)ccn3)[C@@H](C)CO)s2)n1 [I-228, N-((1S,2R)-1-(4-(cyclopropanesulfonamido)pyridin-2-yl)-3-hydroxy-2-methylpropyl)-5-(6-ethoxypyrazin-2-yl)thiazole-2-carboxamide]",5 to 25
23,"CCOc1cncc(-c2cnc(C(=O)N[C@H](c3cc(NS(=O)(=O)C4CC4)ccn3)[C@H](C)CO)s2)n1 [I-229, N-((1S,2S)-1-(4-(cyclopropanesulfonamido)pyridin-2-yl)-3-hydroxy-2-methylpropyl)-5-(6-ethoxypyrazin-2-yl)thiazole-2-carboxamide]",≤ 5
24,"C[C@H](CO)[C@@H](NC(=O)c1ncc(-c2cnn3ccc(Cl)cc23)s1)c1cc(NS(=O)(=O)C2CC2)ccn1 [I-230, 5-(5-chloropyrazolo[1,5-a]pyridin-3-yl)-N-((1R,2S)-1-(4-(cyclopropanesulfonamido)pyridin-2-yl)-3-hydroxy-2-methylpropyl)thiazole-2-carboxamide]",≤ 5
25,"C[C@@H](CO)[C@@H](NC(=O)c1ncc(-c2cnn3ccc(Cl)cc23)s1)c1cc(NS(=O)(=O)C2CC2)ccn1 [I-231, 5-(5-chloropyrazolo[1,5-a]pyridin-3-yl)-N-((1R,2R)-1-(4-(cyclopropanesulfonamido)pyridin-2-yl)-3-hydroxy-2-methylpropyl)thiazole-2-carboxamide]",5 to 25
